Test results from paper PMC3311999 (2011).

Target: PI3K (PIK3CA/PIK3R1) (Homo sapiens, UniProt P42336)
Assay: Michaelis-Menten kinetics
Type: biochemical

Chain of PI3K (PIK3CA/PIK3R1) (P42336 whole entry): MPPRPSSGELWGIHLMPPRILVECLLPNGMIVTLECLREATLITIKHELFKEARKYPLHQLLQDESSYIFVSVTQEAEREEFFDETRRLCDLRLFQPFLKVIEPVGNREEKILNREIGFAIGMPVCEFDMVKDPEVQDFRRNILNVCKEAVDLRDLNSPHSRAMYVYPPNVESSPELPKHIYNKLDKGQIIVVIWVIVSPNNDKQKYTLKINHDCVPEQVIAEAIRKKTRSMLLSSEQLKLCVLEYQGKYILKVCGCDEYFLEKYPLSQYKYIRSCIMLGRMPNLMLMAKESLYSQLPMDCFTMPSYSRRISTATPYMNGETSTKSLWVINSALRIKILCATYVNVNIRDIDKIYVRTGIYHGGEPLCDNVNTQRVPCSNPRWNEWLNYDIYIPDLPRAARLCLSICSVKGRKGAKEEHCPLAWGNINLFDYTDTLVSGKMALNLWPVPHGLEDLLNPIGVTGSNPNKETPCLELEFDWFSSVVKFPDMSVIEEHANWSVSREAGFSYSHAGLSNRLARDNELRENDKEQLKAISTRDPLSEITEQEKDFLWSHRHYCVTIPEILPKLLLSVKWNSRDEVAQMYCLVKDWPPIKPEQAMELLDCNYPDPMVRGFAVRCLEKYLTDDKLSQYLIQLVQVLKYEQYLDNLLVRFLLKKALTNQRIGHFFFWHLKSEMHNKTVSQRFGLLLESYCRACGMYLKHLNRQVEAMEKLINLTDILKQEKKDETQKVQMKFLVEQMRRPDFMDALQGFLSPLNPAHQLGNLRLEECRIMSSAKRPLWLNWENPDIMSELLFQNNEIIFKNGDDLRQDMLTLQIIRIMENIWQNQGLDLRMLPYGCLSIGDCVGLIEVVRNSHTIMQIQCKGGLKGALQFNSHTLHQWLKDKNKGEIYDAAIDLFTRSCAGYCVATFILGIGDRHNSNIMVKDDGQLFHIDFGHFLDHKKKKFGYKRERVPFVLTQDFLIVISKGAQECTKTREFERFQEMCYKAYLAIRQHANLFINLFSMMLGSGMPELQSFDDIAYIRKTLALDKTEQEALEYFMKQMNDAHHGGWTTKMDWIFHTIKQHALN
Chain of PI3K (PIK3CA/PIK3R1) (P27986 2-724 partner): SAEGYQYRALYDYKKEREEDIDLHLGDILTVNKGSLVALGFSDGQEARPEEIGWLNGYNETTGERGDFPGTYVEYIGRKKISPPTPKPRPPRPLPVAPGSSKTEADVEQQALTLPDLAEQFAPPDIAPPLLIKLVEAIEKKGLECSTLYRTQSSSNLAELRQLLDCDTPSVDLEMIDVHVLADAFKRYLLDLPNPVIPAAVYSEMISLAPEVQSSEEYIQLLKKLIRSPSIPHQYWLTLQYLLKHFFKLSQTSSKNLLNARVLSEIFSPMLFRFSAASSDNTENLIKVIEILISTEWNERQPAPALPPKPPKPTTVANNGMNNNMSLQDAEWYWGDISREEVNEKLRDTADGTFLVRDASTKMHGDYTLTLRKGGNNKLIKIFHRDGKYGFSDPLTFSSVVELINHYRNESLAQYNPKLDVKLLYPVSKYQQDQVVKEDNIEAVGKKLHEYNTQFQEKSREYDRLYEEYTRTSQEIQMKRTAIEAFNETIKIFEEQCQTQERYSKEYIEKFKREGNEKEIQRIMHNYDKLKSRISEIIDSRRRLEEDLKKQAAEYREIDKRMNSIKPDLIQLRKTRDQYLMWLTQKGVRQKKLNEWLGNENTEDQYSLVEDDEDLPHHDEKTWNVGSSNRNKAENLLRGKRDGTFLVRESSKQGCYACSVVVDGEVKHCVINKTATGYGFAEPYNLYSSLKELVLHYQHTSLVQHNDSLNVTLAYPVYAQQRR

| Substance | Km [µM] |
| --- | --- |
| BODIPY-PIP2 | 68.7 ± 5.2 |
| FL-PIP2 | 44.8 ± 9.8 |
